Results reported in patent US20250381168A1, “VLA4 INHIBITORS AND USES THEREOF” (Washington University, priority 2022, published 2025).
“Also recorded” adds a separate entry of the source. Like-named read-outs stand apart in the source and are kept apart here.

How the values were obtained:
[1] = test system: hematopoietic stem/progenitor cells (HSPCs); assay: HSPC mobilization into peripheral blood, colony forming unit (CFU) assay; on HSPC mobilization, result in words: test concentration or dose not given here; on No. CFU (×10^3)/mL ± SD, 6 hr: test concentration or dose not given here; settings: mice; for No. CFU (x10^3)/mL ± SD, 2 hr / No. CFU (x10^3)/mL ± SD, 4 hr / No. CFU (x10^3)/mL ± SD, 6 hr / No. CFU (x10^3)/mL ± SD, 8 hr: single injection; for No. CFU (x10^3)/mL ± SD, 2 hr: 2 hr post dose (TABLE 12); for No. CFU (x10^3)/mL ± SD, 4 hr: 4 hr post dose (TABLE 12); for No. CFU (x10^3)/mL ± SD, 6 hr: 6 hr post dose (TABLE 12); for No. CFU (x10^3)/mL ± SD, 8 hr: 8 hr post dose (TABLE 12)
[2] = target: VLA-4 (a4b1) (Homo sapiens (Human), UniProt P05556+P13612); assay: sVCAM flow cytometry cell-based assay (inhibition of soluble VCAM-1 binding to G2 ALL cells);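 further: compounds at 0.1 to 1000 nM preincubated 30 min with G2 ALL cells, then VCAM/Fc added for 30 min, bound VCAM-1 detected by PE secondary antibody, percent binding cells by flow cytometry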
VLA-4 (a4b1), sequence (P13612 34-1032): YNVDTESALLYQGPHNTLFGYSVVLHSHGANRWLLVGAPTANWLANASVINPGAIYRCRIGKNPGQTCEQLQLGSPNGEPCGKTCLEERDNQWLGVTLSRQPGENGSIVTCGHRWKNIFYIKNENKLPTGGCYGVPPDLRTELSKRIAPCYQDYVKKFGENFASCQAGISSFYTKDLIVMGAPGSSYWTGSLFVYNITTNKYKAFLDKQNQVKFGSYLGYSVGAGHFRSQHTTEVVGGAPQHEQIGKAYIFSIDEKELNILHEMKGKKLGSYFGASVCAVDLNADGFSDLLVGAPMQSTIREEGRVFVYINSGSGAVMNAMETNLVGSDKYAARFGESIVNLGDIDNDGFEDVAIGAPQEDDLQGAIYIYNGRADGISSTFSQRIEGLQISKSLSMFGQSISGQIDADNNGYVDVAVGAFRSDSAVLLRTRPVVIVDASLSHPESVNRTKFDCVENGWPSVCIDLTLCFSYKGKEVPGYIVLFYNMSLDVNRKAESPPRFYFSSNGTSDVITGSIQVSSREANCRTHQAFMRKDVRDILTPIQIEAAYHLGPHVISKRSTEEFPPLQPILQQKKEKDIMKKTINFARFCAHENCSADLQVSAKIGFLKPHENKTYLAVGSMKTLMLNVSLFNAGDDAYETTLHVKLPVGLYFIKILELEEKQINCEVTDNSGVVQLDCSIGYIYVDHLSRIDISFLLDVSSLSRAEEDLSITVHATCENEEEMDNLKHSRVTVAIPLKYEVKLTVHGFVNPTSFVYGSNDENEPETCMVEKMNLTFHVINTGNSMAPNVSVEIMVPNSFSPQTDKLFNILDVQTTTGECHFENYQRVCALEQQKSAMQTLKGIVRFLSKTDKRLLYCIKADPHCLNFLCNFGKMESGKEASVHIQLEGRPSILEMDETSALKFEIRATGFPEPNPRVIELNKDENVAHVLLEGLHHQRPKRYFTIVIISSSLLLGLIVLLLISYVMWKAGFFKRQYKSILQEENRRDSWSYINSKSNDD
VLA-4 (a4b1), sequence (P05556 21-798): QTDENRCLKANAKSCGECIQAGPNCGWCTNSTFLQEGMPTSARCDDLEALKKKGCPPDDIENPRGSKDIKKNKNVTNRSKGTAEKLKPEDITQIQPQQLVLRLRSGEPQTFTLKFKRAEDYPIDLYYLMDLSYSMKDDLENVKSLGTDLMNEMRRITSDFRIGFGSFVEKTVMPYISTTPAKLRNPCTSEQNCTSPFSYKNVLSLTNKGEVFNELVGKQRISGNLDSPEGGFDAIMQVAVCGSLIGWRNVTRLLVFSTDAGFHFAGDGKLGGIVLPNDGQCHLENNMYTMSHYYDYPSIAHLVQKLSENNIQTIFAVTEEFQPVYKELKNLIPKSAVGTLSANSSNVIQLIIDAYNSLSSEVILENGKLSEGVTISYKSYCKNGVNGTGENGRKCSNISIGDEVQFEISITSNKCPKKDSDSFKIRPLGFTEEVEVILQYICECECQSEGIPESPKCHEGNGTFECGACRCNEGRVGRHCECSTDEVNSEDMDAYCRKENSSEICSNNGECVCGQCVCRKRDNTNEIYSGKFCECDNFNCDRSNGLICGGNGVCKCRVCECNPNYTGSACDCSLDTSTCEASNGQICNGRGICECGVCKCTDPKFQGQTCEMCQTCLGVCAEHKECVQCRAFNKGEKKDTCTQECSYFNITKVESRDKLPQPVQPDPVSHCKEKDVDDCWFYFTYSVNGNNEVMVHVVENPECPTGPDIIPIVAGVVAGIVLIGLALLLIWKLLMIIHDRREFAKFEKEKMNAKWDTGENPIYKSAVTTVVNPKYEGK

[3] = target: integrin a4b7 (Homo sapiens (Human), UniProt P13612+P26010); assay: a4b7 solid phase receptor assay (SPRA); settings: recombinant human a4b7 binding to plate-coated human VCAM1 (TABLE 4)
integrin a4b7, sequence (P13612 34-970): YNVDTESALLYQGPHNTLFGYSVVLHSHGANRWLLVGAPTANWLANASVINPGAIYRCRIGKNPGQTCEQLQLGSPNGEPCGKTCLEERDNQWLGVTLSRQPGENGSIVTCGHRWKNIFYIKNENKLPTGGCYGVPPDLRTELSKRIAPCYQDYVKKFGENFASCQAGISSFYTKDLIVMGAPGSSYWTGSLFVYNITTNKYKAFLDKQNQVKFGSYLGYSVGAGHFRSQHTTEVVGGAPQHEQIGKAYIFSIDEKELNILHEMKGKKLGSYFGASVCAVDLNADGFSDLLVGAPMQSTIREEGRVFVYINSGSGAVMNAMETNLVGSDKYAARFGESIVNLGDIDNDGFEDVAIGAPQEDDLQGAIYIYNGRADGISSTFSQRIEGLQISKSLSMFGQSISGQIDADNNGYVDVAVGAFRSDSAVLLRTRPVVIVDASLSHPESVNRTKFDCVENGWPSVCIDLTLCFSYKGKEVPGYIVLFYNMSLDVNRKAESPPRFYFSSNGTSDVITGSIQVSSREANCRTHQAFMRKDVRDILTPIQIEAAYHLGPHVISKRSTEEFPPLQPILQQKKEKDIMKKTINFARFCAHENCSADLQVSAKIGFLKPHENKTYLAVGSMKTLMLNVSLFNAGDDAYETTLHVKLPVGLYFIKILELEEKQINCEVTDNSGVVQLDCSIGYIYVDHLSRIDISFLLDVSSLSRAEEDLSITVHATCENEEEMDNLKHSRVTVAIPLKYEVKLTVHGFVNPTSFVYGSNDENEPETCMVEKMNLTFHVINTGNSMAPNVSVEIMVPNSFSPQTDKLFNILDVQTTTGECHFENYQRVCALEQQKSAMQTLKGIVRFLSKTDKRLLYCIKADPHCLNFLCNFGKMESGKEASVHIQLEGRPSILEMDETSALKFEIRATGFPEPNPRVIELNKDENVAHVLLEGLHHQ
integrin a4b7, sequence (P26010 20-723): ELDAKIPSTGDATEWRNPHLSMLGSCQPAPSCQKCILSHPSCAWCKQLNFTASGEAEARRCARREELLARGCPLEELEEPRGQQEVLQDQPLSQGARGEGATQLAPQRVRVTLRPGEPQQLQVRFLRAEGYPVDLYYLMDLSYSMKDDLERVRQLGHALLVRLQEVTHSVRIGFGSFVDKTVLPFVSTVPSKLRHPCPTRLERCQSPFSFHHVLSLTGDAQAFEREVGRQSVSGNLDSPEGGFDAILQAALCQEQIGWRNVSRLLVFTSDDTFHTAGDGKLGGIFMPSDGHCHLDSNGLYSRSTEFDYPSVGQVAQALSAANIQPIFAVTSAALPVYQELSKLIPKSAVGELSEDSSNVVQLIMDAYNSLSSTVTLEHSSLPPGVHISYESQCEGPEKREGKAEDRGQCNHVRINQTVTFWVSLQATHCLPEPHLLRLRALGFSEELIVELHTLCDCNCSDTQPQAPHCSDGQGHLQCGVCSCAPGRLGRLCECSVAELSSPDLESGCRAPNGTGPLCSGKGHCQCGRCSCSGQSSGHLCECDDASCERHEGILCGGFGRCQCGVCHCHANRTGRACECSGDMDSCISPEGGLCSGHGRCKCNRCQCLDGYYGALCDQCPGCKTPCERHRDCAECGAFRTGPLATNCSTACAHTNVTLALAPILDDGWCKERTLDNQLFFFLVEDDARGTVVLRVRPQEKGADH
Experimental: Wells were washed 3 times with TBS+ and blocking buffer (TBS+ with 1% bovine serum albumin), the plate was incubated for 1 hr at 37° C., and then washed 3× with TBS+ buffer. Recombinant human a4b7 (R & D Systems) was diluted to 1 μg/ml in TBS+/0.1% bovine serum albumin. Test compounds were diluted into the integrin solution and added to the washed ligand-coated plate according to a standard template with each sample repeated in triplicate. After incubation for 2 hr at room temperature, the plate was washed 3× with 150 μl of TBS+ buffer. To each well, biotinylated anti-A4 antibody (R & D Systems) at 1 μg/ml in TBS+/0.1% BSA was added and the plate covered and incubated for 1 hr at room temperature. After washing the plate 3× with TBS+ buffer, streptavidin-conjugated horseradish peroxidase (R & D Systems) diluted in TBS+ blocking buffer was added to the wells and the plate incubated for 20 min at room temperature. The plate was washed 3× with TBS+ buffer followed by addition of 50 μl of TMB substrate (Sigma T4444). After incubation for 20 min at room temperature, plates were stopped with TMB stop solution (Sigma S5689) by colorimetric detection at 450 nm wavelength using a Tecan Safire II plate reader.

[4] = as listed in TABLE 12, read-out: sVCAM IC50
[5] = inhibition of sVCAM-1 binding to human G2 ALL cells (TABLE 3), read-out: SVCAM-1, IC50

SMILES: COc1cccc(OC)c1-c1ccc(C[C@H](CC(=O)c2c(Cl)cc(C(=O)O)cc2Cl)C(=O)O)cc1 [Example C1]
- time to which HSPC mobilization is extended after a single dose [1]: ≤ 2 h
- HSPC mobilization, result in words ([1]; single dose): have returned to baseline
- No. CFU (×10^3)/mL ± SD, 0.5 hr ([1]; single dose, peripheral blood, 0.5 hr post dose (TABLE 7)): 0.96 ± 0.33 (×10^3)/mL
- No. CFU (×10^3)/mL ± SD, 1 hr ([1]; single dose, peripheral blood, 1 hr post dose (TABLE 20)): 2.16 ± 1.22 (×10^3)/mL
- No. CFU (×10^3)/mL ± SD, 2 hr ([1]; single dose, peripheral blood, 2 hr post dose (TABLE 7)): 0.33 ± 0.14 (×10^3)/mL
- No. CFU (×10^3)/mL ± SD, 4 hr ([1]; single dose, peripheral blood, 4 hr post dose (TABLE 7)): 0.08 ± 0.04 (×10^3)/mL
- No. CFU (×10^3)/mL ± SD, 4 hr ([1]; single dose, peripheral blood, 4 hr post dose (TABLE 20)): 0.26 ± 0.18 (×10^3)/mL
- No. CFU (×10^3)/mL ± SD, 8 hr ([1]; single dose, peripheral blood, 8 hr post dose (TABLE 20)): 0.13 ± 0.10 (×10^3)/mL
- HSPC mobilization, result in words ([1]; single dose, listed as Comparator Compound 1): returned to baseline by 4 hours
- No. CFU (x10^3)/mL ± SD, 2 hr ([1]; peripheral blood): 0.67 ± 0.12 (x10^3)/mL
- No. CFU (x10^3)/mL ± SD, 4 hr ([1]; peripheral blood): 0.42 ± 0.14 (x10^3)/mL
- No. CFU (x10^3)/mL ± SD, 6 hr ([1]; peripheral blood): 0.26 ± 0.07 (x10^3)/mL
- No. CFU (x10^3)/mL ± SD, 8 hr ([1]; peripheral blood): 0.22 ± 0.02 (x10^3)/mL
- No. CFU (×10^3)/mL ± SD, 0.25 hr ([1]; single s.c. injection, peripheral blood, 0.25 hr post dose (TABLE 5)): 3.98 ± 1.09 (×10^3)/mL
- No. CFU (×10^3)/mL ± SD, 2 hr ([1]; single s.c. injection, peripheral blood, 2 hr post dose (TABLE 5)): 0.86 ± 0.25 (×10^3)/mL
- No. CFU (×10^3)/mL ± SD, 4 hr ([1]; single s.c. injection, peripheral blood, 4 hr post dose (TABLE 5)): 0.27 ± 0.20 (×10^3)/mL
- IC50 ([2]; as listed in TABLE 5, read-out: sVCAM IC50): 4.9 nM
- IC50 ([2]; as listed in TABLE 7, read-out: sVCAM IC50): 4.9 nM
- IC50 [2, 4]: 4.9 nM
- IC50 ([2]; as listed in TABLE 20, read-out: sVCAM IC50): 4.9 nM
- IC50 [2, 5]: 4.98 nM
- IC50 [3]: 1.1 nM

SMILES: COCCOCCOCCOCCOCCOCCOCCOCCOCCOCCOCCOCCOCCOCCOCCOCCOCCOCCOCCOCCOCCOCCOCCOCCOCc1cc(OC)c(-c2ccc(C[C@H](NC(=O)c3c(Cl)cc(C(=O)O)cc3Cl)C(=O)O)cc2)c(OC)c1 [Example C17, (S)-4-((1-carboxy-2-(2′,6′-dimethoxy-4′-(2,5,8,11,14,17,20,23,26,29,32,35,38,41,44,47,50,53,56,59,62,65,68,71,74-pentacosaoxapentaheptacontyl)-[1,1′-biphenyl]-4-yl)ethyl)carbamoyl)-3,5-dichlorobenzoic acid]
- HSPC mobilization in the triple combination regimen with plerixafor and truncated Groβ [1]: does not extend mobilization out to 6 hours
- time to which HSPC mobilization is extended after a single dose [1]: ≤ 2 h
- No. CFU (×10^3)/mL ± SD, 2 hr ([1]; alone or in combination with Plerixafor and tGroβ, peripheral blood, 2 hr (TABLE 17)): 4.77 ± 1.21 (×10^3)/mL
- No. CFU (×10^3)/mL ± SD, 4 hr ([1]; alone or in combination with Plerixafor and tGroβ, peripheral blood, 4 hr (TABLE 17)): 0.81 ± 0.26 (×10^3)/mL
- No. CFU (×10^3)/mL ± SD, 6 hr ([1]; alone or in combination with Plerixafor and tGroβ, peripheral blood, 6 hr (TABLE 17)): 0.26 ± 0.13 (×10^3)/mL
- HSPC mobilization, result in words ([1]; single dose): returning to baseline by 4 hours and no mobilization at 6 hours; also recorded: does not extend mobilization; also recorded: do not provide for extended mobilization
- No. CFU (×10^3)/mL ± SD, 2 hr ([1]; single dose, peripheral blood, 2 hr post dose (TABLE 10)): 3.67 ± 1.09 (×10^3)/mL
- No. CFU (×10^3)/mL ± SD, 4 hr ([1]; single dose, peripheral blood, 4 hr post dose (TABLE 10)): 0.57 ± 0.21 (×10^3)/mL
- No. CFU (×10^3)/mL ± SD, 6 hr ([1]; single dose, peripheral blood, 6 hr post dose (TABLE 10)): 0.28 ± 0.17 (×10^3)/mL
- No. CFU (x10^3)/mL ± SD, 2 hr ([1]; peripheral blood): 4.32 ± 1.23 (x10^3)/mL
- No. CFU (x10^3)/mL ± SD, 4 hr ([1]; peripheral blood): 1.21 ± 0.40 (x10^3)/mL
- No. CFU (x10^3)/mL ± SD, 6 hr ([1]; peripheral blood): 0.26 ± 0.07 (x10^3)/mL
- No. CFU (x10^3)/mL ± SD, 8 hr ([1]; peripheral blood): 0.19 ± 0.09 (x10^3)/mL
- IC50 ([2]; as listed in TABLE 10, read-out: sVCAM IC50): 1.49 nM
- IC50 [2, 4]: 1.49 nM
- IC50 ([2]; as listed in TABLE 17, read-out: sVCAM IC50): 1.49 nM
- IC50 [2, 5]: 1.49 nM
- IC50 [3]: 1.5 nM
